Reference: article PMC11251039, “Harnessing cholesterol uptake of malaria parasites for therapeutic applications” (EMBO Molecular Medicine, 2024)
Values joined by “and” are separate entries in the source; they are usually repeats but may differ in a detail not shown here. Equal entries are not always repeated.

Tests used:
[1] = test system: Toxoplasma gondii tachyzoites (RH strain); assay: Toxoplasma growth inhibition assay (tdTomato fluorescence, in HFF cells); format: cell-based; settings: Toxoplasma gondii, HFF, 72 h; read-out: IC50, T. gondii tachyzoite growth inhibition
Protocol: Fluorescence was measured daily with a fluorescence microplate reader for one week, and the background fluorescence from the time 0 reading was subtracted from all other measurements. […]
Toxoplasma Growth Inhibition Assays:
Growth inhibition was investigated as described previously (26). Fluorescent Toxoplasma gondii parasites were inoculated into an optical bottom 96-well plate containing confluent human foreskin fibroblast (HFF) host cells at a density of 2,000 parasites/well, with a serial dilution of each compound, or culture media/DMSO (0.1% v/v) alone. Plates were measured daily with a FluoStar Optima fluorescence plate reader at 540 nm excitation and 590 nm emission for one week, and the background fluorescence from the time 0 reading was subtracted from all other measurements. […]

[2] = test system: P. falciparum stage V gametocytes; assay: P. falciparum gametocyte viability assay (MitoTracker, flow cytometry), stage V; format: cell-based, Plasmodium falciparum; settings: 48 h; for Gametocyte stage V viability, percentage of control: listed as BC9B
Protocol: (§1) Gametocyte assays commenced seven days (stage III–IV) or ten days (stage V) post-invasion. […]
(§2) Plasmodium falciparum Gametocyte Viability Assays:
(§3) Asexual P. falciparum parasites were induced to form gametocytes as described (21).
(§4) Synchronized trophozoite-stage parasites at 2% parasitaemia were incubated overnight and […]
(§5) haematocrit maintained at 4%. On the subsequent day (designated as day 0) of gametocytogenesis, the culture containing early ring-stage parasites was first purified by sorbitol synchronisation to remove asynchronous trophozoites, and passed through a magnetic field in a sterile MACS® column in a SuperMACSTM II magnet to remove remaining late-stage parasites or later-stage gametocytes (negative selection). The culture medium was supplemented with 50 mM N-acetyl-D-glucosamine to inhibit asexual parasite proliferation, and changed daily. Sorbitol treatment was performed on Day 1, 5, and 6 to further remove asexual parasites. Gametocytes were magnetically enriched (positive selection) in a sterile column with a SuperMACSTM II magnet and eluted in culture media with 50 mM N-acetyl-D-glucosamine. These gametocytes were incubated overnight at 37 °C under microaerophilic conditions, and purity was assessed by examination under a light microscope (400× […]
(§6) Gametocyte viability was assessed as described by Ridgway et al. (21) with modifications.
(§7) Compounds or solvent controls (DMSO) were serially diluted across 96-well plates in culture media supplemented with 50 mM N-acetyl-D-glucosamine. Culture media without compound was used as a negative control. […]
(§8) control to determine background gametocyte fluorescence. Stage III-IV gametocytes (Day 7) or stage V (day 10) gametocytes were concentrated and added to the plate with 200 µL per well. The plate was incubated for 48 hours at 37 °C under humid microaerophilic conditions.
(§9) Parasites were then stained with 500 nM MitoTrackerTM Deep Red FM and 5 μg/ml Hoechst […]
(§10) cytometer as described above. […]
(§11) excluded. Live (positive) and dead (negative) gametocytes were differentiated by […]
(§12) percentage of each was calculated. […]

[3] = test system: P. falciparum stage III–IV gametocytes; assay: P. falciparum gametocyte viability assay (MitoTracker, flow cytometry), stage III-IV; format: cell-based, Plasmodium falciparum; settings: 48 h; for Gametocyte stage III-IV viability, percentage of control: listed as BC9B
Protocol: as §1, §2, §3, §4, §5, §6, §7, §8, §9, §10, §11, §12

[4] = test system: P. berghei liver stages; assay: Plasmodium berghei liver stage growth inhibition assay (luminescence, in Huh7 cells); settings: for P. berghei liver stage growth, dose-response data points (Figure 3A): replicate data points; for P. berghei liver stage growth, dose-response data points (Figure 3A) / Figure 3E dose-response value (replicates): listed as BC9B
[5] = test system: human foreskin fibroblasts (HFF); assay: Human foreskin fibroblast growth inhibition assay (SYBR Safe); format: cell-based; settings: Homo sapiens, Fibroblast; 72 h, HFF; read-out: IC50, human fibroblast growth inhibition
Protocol: HFF cell growth inhibition assays commenced by adding 5000 cells to each well of a 96-well plate. 10 µg/mL cycloheximide was used as a no-growth control. DNA replication (indicating growth) was measured at the specified time using SYBR Safe DNA Gel Stain (Invitrogen 33102) and a fluorescence microplate reader. […]
Human Foreskin Fibroblast Growth Inhibition Assays:
The HFF cell line was maintained under routine culture conditions in DMEM containing 3.7 g/L NaHCO3 supplemented with 10% v/v newborn calf serum (NCS), 50 units/mL penicillin, 50 μg/mL streptomycin, 10 μg/mL gentamicin, 0.25 μg/mL amphotericin B, and 0.2 mM L-glutamine at 37 °C in a humidified 5% CO2 incubator. […]
HFF cells were detached from a flask using 0.25% Trypsin with 0.2 g/L EDTA (Sigma T4049) and washed with culture media. Cells were incubated with a serial dilution of each compound, or media/DMSO alone. Cycloheximide at 10 µg/mL was used as a positive control to determine background fluorescence. Approximately 5 000 cells were seeded in each well. Plates were incubated at 37 °C for 72 hours (until reaching confluency) and the media was removed. Plates were transferred to a -18 °C freezer. Plates were thawed and SYBR Safe DNA Gel Stain (final concentration 1/10,000) diluted in lysis buffer (as above) was added. Fluorescence was read at 490 nm excitation/ 520 nm emission on a FLUOstar Optima fluorescence plate reader. […]

Question: Which results are given for `COc1cc(NC(C)CCCNC(=O)CCC(=O)OC(C)C)c2ncccc2c1` (stereo not shown) [PQ-link]?
Answer: IC50 [1]: 27.1 µM; Gametocyte stage V viability, percentage of control ([2]; 50.000000000 uM, replicate values, source data Fig. 2D): 66.98% and 63.41% and 52.55% and 74.37% and 69.92% and 70.17%; Gametocyte stage V viability, percentage of control ([2]; 100.000000000 uM, replicate values, source data Fig. 2D): 11.39% (2×) and 9.662% and 17.36% and 16.33% and 21.17% and 48.62% and 50.63% and 48.77%; Gametocyte stage V viability, percentage of control ([2]; 200.000000000 uM, replicate values, source data Fig. 2D): -1.011% and -1.165% and -0.9342% and -0.2117% and -0.2822% and -0.3175% and 0.4794% and 0.8647% and 0.8741%; viability at 6.25 µM ([2]; Plasmodium falciparum, 6.250000000 uM, replicate values, source data Fig. 2D, read-out: Gametocyte stage V viability, percentage of control): 103%; viability at 12.5 µM ([2]; Plasmodium falciparum, 12.500000000 uM, replicate values, source data Fig. 2D, read-out: Gametocyte stage V viability, percentage of control): 104%; viability at 25 µM ([2]; Plasmodium falciparum, 25.000000000 uM, replicate values, source data Fig. 2D, read-out: Gametocyte stage V viability, percentage of control): 87.6%; IC50 ([2]; Plasmodium falciparum, read-out: IC50, P. falciparum gametocyte stage V inhibition): 70.5 µM; Gametocyte stage III-IV viability, percentage of control ([3]; 3.125000000 uM, replicate values, source data Fig. 2C, 3.125 µM): 95.52% (2×) and 103.7% and 98.94% and 103.3% and 102% and 98.19% and 98.79% and 101.3% and 100.5% and 109.4%; Gametocyte stage III-IV viability, percentage of control ([3]; 6.250000000 uM, replicate values, source data Fig. 2C, 6.25 µM): 103.3% and 99.89% and 101.1% and 100.9% and 104.1% and 103.4% and 100.6% and 98.59% and 102.7% and 100.3% and 94.88%; Gametocyte stage III-IV viability, percentage of control ([3]; 12.500000000 uM, replicate values, source data Fig. 2C, 12.5 µM): 96% and 94.38% and 101.5% and 100.5% and 100.7% and 100.4% and 98.39% (2×) and 102.7% and 98.65% and 95.96%; Gametocyte stage III-IV viability, percentage of control ([3]; 25.000000000 uM, replicate values, source data Fig. 2C): 93.41% and 97.62% and 99.34% and 95.75% and 97.14% and 99.2% and 97.59% and 96.58% and 96.77% and 92.46% and 91.11%; Gametocyte stage III-IV viability, percentage of control ([3]; 50.000000000 uM, replicate values, source data Fig. 2C): 83.69% and 82.72% and 92.56% and 88.38% and 90.37% and 90.15% and 87.94% (2×) and 83.57% and 86.8% and 83.3%; Gametocyte stage III-IV viability, percentage of control ([3]; 100.000000000 uM, replicate values, source data Fig. 2C): 63.1% and 60.41% and 65.29% and 78% and 74.98% and 78.2% and 65.68% and 65.48% and 64.86% and 59.49% and 56.77% and 63.58%; Gametocyte stage III-IV viability, percentage of control ([3]; 200.000000000 uM, replicate values, source data Fig. 2C): 0.3329% and -3.262% and -3.462% and -33.89% and -33.85% and -34.28% and -34.3% and -33.84% and -35.23%; viability at 3.125 µM ([3]; Plasmodium falciparum, 3.125000000 uM, replicate values, source data Fig. 2C, read-out: Gametocyte stage III-IV viability, percentage of control): 97.8%; viability at 6.25 µM ([3]; Plasmodium falciparum, 6.250000000 uM, replicate values, source data Fig. 2C, read-out: Gametocyte stage III-IV viability, percentage of control): 100%; viability at 12.5 µM ([3]; Plasmodium falciparum, 12.500000000 uM, replicate values, source data Fig. 2C, read-out: Gametocyte stage III-IV viability, percentage of control): 94.9%; viability at 25 µM ([3]; Plasmodium falciparum, 25.000000000 uM, replicate values, source data Fig. 2C, read-out: Gametocyte stage III-IV viability, percentage of control): 92.1%; viability at 50 µM ([3]; Plasmodium falciparum, 50.000000000 uM, replicate values, source data Fig. 2C, read-out: Gametocyte stage III-IV viability, percentage of control): 82.6%; IC50 ([3]; Plasmodium falciparum, read-out: IC50, P. falciparum gametocyte stage III-IV inhibition): 103 µM; P. berghei liver stage growth, dose-response data points (Figure 3A) ([4]; 0.015241580 uM): 92.27 and 99.03 and 108.7 and 82.7 and 111.9 and 105.4 and 99.3 and 85.25 and 115.4; P. berghei liver stage growth, dose-response data points (Figure 3A) ([4]; 0.045724740 uM): 97.1 and 81.64 and 78.74 and 103.7 and 110.1 and 105.2 and 93.19 and 87.52 and 92.15; P. berghei liver stage growth, dose-response data points (Figure 3A) ([4]; 0.137174210 uM): 100 and 94.2 and 80.68 and 93.41 and 113.2 and 98.29 and 109.9 and 94.24 and 87.26; Figure 3E dose-response value (replicates) ([4]; 0.238281250 uM): 98.59; P. berghei liver stage growth, dose-response data points (Figure 3A) ([4]; 0.411522630 uM): 112.6 and 99.03 and 80.68 and 102.2 and 100.8 and 100.3 and 103.8 and 90.84 and 80.37; Figure 3E dose-response value (replicates) ([4]; 0.476562500 uM): 90.54 and 104.6 and 95.37 and 97.54 and 101.7 and 100.2 and 97.21 and 100.9 and 86.29 and 94.55 and 90.62; P. berghei liver stage growth, dose-response data points (Figure 3A) ([4]; 1.234567900 uM): 102.9 and 94.2 and 112.6 and 111.7 and 103.5 and 88.53 and 119.6 and 97.91 and 82.29; Figure 3E dose-response value (replicates) ([4]; 1.906250000 uM): 91.51 and 91.73 and 86.54 and 84.53 and 94.62 and 101.5 and 100.5 and 102.9 and 93.23 and 96 and 85.81; P. berghei liver stage growth, dose-response data points (Figure 3A) ([4]; 3.703703700 uM): 97.1 and 64.25 and 91.3 and 55.79 and 60.08 and 47.34 and 73.56 and 51.31 and 52.36; Figure 3E dose-response value (replicates) ([4]; 3.812500000 uM): 95.8 and 93.79 and 78.58 and 83.98 and 89.72 and 104 and 93.76 and 101.5 and 80.15 and 95.42 and 85.86; Figure 3E dose-response value (replicates) ([4]; 7.625000000 uM): 98.29 and 86.67 and 78.83 and 80.78 and 88.54 and 106.8 and 100.5 and 90.89 and 82.41 and 82.35 and 77.49; P. berghei liver stage growth, dose-response data points (Figure 3A) ([4]; 11.111111100 uM): 24.64 and 16.91 and 28.5 and 18.53 and 18.77 and 20.08 and 31.94 and 26.35 and 21.2; Figure 3E dose-response value (replicates) ([4]; 15.250000000 uM): 60.3 and 56.28 and 80.98 and 77.04 and 83.07 and 85.06 and 90.81 and 88.28 and 61.89 and 72.05 and 69.51; Figure 3E dose-response value (replicates) ([4]; 30.500000000 uM): 25.91 and 29.38 and 68.25 and 66.32 and 65.97 and 65.87 and 62.35 and 59.29 and 31.73 and 40.4 and 41.06; P. berghei liver stage growth, dose-response data points (Figure 3A) ([4]; 33.333333300 uM): 3.382 (2×) and 4.348 and 16.15 and 16.87 and 15.2 and 10.82 and 11.34 and 9.511; Figure 3E dose-response value (replicates) ([4]; 61.000000000 uM): 6.18 and 4.905 and 12.31 and 10.74 and 14.16 and 15.86 and 12.88 and 14.9 and 2.822 and 2.591 and 2.429; P. berghei liver stage growth, dose-response data points (Figure 3A) ([4]; 100.000000000 uM): -1.449 and -0.4831 and -2.415 and 1.984 and 3.77 and 1.865 and 3.403 and 2.705 and 2.007; IC50 ([4]; Plasmodium berghei, Huh-7, 48 h, read-out: IC50, P. berghei liver stage growth inhibition): 5.7 µM; IC50 [5]: 98.2 µM
